# Source: patent US20140107316A1, “DRUG DELIVERY CONJUGATES CONTAINING UNNATURAL AMINO ACIDS AND METHODS FOR USING” (priority 2012, published 2014)
# Entries after “also recorded” stand apart in the source; their conditions may differ. Read-outs that look alike come from different tables or passages of the source. Marks after values point to notes of the source that are not given here.
# Legend:
# AN3CA = assay: In vitro test against cancer cell lines, AN3CA; format: cell-based, Human; settings: FR status −, evaluated from 0.1-100 nM
# Experimental: (§1) In vitro test against the various cancer cell lines. Cells are heavily seeded in 24-well Falcon plates and allowed to form nearly confluent monolayers overnight. Thirty minutes prior to the addition of the test compound, spent medium is aspirated from all wells and replaced with fresh folate-deficient RPMI medium (FFRPMI). A subset of wells are designated to receive media containing 100 μM folic acid. The cells in the designated wells are used to determine the targeting specificity. […] Following one rinse with 1 mL of fresh FFRPMI containing 10% heat-inactivated fetal calf serum, each well receives 1 mL of medium containing increasing concentrations of test compound (4 wells per sample) in the presence or absence of 100 μM free folic acid as indicated. Treated cells are pulsed for 2 h at 37° C., rinsed 4 times with 0.5 mL of media, and then chased in 1 mL of fresh medium up to 70 h. Spent medium is aspirated from all wells and replaced with fresh medium containing 5 μCi/mL ^3H-thymidine. […] A 450 μL aliquot of each solubilized sample is transferred to a scintillation vial containing 3 mL of Ecolume scintillation cocktail and then counted in a liquid scintillation counter. Final tabulated results are expressed as the percentage of ^3H-thymidine incorporation relative to untreated controls.
# (§2) Folate receptor expressing cells. […] EC1456 was evaluated from 0.1-100 nM.
# KB tumors = assay: KB tumor assay in nu/nu mice; settings: for CR (%) / Cures (%) / PR (%) / Toxicity Deaths (%) / Toxicity Avg. Weight Loss: TIW
# Experimental: Inhibition of Tumor Growth in Mice. Four to seven week-old mice (Balb/c or nu/nu strains) were purchased from Harlan Sprague Dawley, Inc. (Indianapolis, Ind.). Normal rodent chow contains a high concentration of folic acid (6 mg/kg chow); accordingly, mice used were maintained on the folate-free diet (Harlan diet #TD00434) for 1 week before tumor implantation to achieve serum folate concentrations close to the range of normal human serum. For tumor cell inoculation, 1×10^6 M109 cells (Balb/c strain) or 1×10^6 KB cells (nu/nu strain) in 100 μL were injected in the subcutis of the dorsal medial area. Tumors were measured in two perpendicular directions every 2-3 days using a caliper, and their volumes were calculated as 0.5×L×W^2, where L=measurement of longest axis in mm and W=measurement of axis perpendicular to L in mm. […] Dosing solutions were prepared fresh each day in PBS and administered through the lateral tail vein of the mice.
# General KB Tumor Assay. The anti-tumor activity of the compounds described herein, when administered intravenously (i.v.) to tumor-bearing animals, was evaluated in nu/nu mice bearing subcutaneous KB tumors. Approximately 8 days post tumor inoculation in the subcutis of the right axilla with 1×10^6 KB cells (average tumor volume at to=50-100 mm^3), in mice (5/group) were injected i.v. three times a week (TIW), for 3 weeks with […] of the drug delivery conjugate or with an equivalent dose volume of PBS (control), unless otherwise indicated. Tumor growth was measured using calipers at 2-day or 3-day intervals in each treatment group. Tumor volumes were calculated using the equation V=a×b^2/2, where “a” is the length of the tumor and “b” is the width expressed in millimeters.
# Toxicity as Measured by Weight Loss. The percentage weight change of the mice was determined in mice (5 mice/group) on selected days post-tumor inoculation (PTI), and graphed.
# In vivo activity against tumors.
# [1] = system: folate receptor-positive KB cells
# Experimental: Inhibition of Cellular DNA Synthesis. The compounds described herein were evaluated using an in vitro cytotoxicity assay that predicts the ability of the drug to inhibit the growth of folate receptor-positive KB cells. The compounds were comprised of folate linked to a respective chemotherapeutic drug, as prepared according to the protocols described herein. The KB cells were exposed for up to 7 h at 37° C. to the indicated concentrations of folate-drug conjugate in the absence or presence of at least a 100-fold excess of folic acid. The cells were then rinsed once with fresh culture medium and incubated in fresh culture medium for 72 hours at 37° C. Cell viability was assessed using a ^3H-thymidine incorporation assay.
# In vitro test against the various cancer cell lines. Cells are heavily seeded in 24-well Falcon plates and allowed to form nearly confluent monolayers overnight. Thirty minutes prior to the addition of the test compound, spent medium is aspirated from all wells and replaced with fresh folate-deficient RPMI medium (FFRPMI). A subset of wells are designated to receive media containing 100 μM folic acid. The cells in the designated wells are used to determine the targeting specificity. […] Following one rinse with 1 mL of fresh FFRPMI containing 10% heat-inactivated fetal calf serum, each well receives 1 mL of medium containing increasing concentrations of test compound (4 wells per sample) in the presence or absence of 100 μM free folic acid as indicated. Treated cells are pulsed for 2 h at 37° C., rinsed 4 times with 0.5 mL of media, and then chased in 1 mL of fresh medium up to 70 h. Spent medium is aspirated from all wells and replaced with fresh medium containing 5 μCi/mL ^3H-thymidine. Following a further 2 h 37° C. incubation, cells are washed 3 times with 0.5 mL of PBS and then treated with 0.5 mL of ice-cold 5% trichloroacetic acid per well. After 15 min, the trichloroacetic acid is aspirated and the cell material solubilized by the addition of 0.5 mL of 0.25 N sodium hydroxide for 15 min. A 450 μL aliquot of each solubilized sample is transferred to a scintillation vial containing 3 mL of Ecolume scintillation cocktail and then counted in a liquid scintillation counter. Final tabulated results are expressed as the percentage of ^3H-thymidine incorporation relative to untreated controls.
# as §2
# LNCaP = assay: In vitro test against cancer cell lines, LNCaP; format: cell-based, Human; settings: FR status −, evaluated from 0.1-100 nM, read-out: EC1456 Activity (IC50)
# Experimental: as §1, §2
structure (smiles),measurement,setting,value
CCCC(=O)OCN(C(=O)[C@@H](NC(=O)[C@H]1CCCCN1C)[C@@H](C)CC)[C@H](C[C@@H](OC(C)=O)c1nc(C(=O)N[C@@H](Cc2ccc(O)cc2)C[C@H](C)C(=O)NNC(=O)OCCSSC[C@@H](NC(=O)[C@H](CCC(=O)NC[C@H](O)[C@@H](O)[C@H](O)[C@H](O)CO)NC(=O)[C@@H](CCC(=O)O)NC(=O)[C@H](CCC(=O)NC[C@H](O)[C@@H](O)[C@H](O)[C@H](O)CO)NC(=O)[C@@H](CCC(=O)O)NC(=O)[C@H](CCC(=O)NC[C@H](O)[C@@H](O)[C@H](O)[C@H](O)CO)NC(=O)CC[C@@H](NC(=O)c2ccc(NCc3cnc4nc(N)[nH]c(=O)c4n3)cc2)C(=O)O)C(=O)O)cs1)C(C)C [EC1456],EC1456 Activity (IC50),AN3CA,Inactive
same,In vivo activity,KB tumors,Complete
same,CR (%),"KB tumors; 0.5 μmol/kg, 3 weeks",0%
same,Cures (%),"KB tumors; 0.5 μmol/kg, 3 weeks",0%
same,PR (%),"KB tumors; 0.5 μmol/kg, 3 weeks",60%
same,Toxicity Deaths (%),"KB tumors; 0.5 μmol/kg, 3 weeks",0%
same,Toxicity Avg. Weight Loss,"KB tumors; 0.5 μmol/kg, 3 weeks, untreated control group 2.4%",<5%*
same,CR (%),"KB tumors; 0.67 μmol/kg, 2 weeks",20%
same,Cures (%),"KB tumors; 0.67 μmol/kg, 2 weeks",0%
same,PR (%),"KB tumors; 0.67 μmol/kg, 2 weeks",60%
same,Toxicity Avg. Weight Loss,"KB tumors; 0.67 μmol/kg, 2 weeks",<2%
same,Toxicity Deaths (%),"KB tumors; 0.67 μmol/kg, 2 weeks",0%
same,specific activity mediated by the folate receptor,KB tumors; 1 μmol/kg TIW co-dosed with excess EC0923 (50 or 100 μmol/kg),competable with excess EC0923
same,whole animal toxicity (animal body weight),"KB tumors; 1 μmol/kg TIW, 2 wk",did not result in any observable gross toxicity; also recorded: does not show any evidence of whole animal toxicity
same,CR (%),"KB tumors; 1.0 μmol/kg, 2 weeks",0%
same,Cures (%),"KB tumors; 1.0 μmol/kg, 2 weeks",60%
same,PR (%),"KB tumors; 1.0 μmol/kg, 2 weeks",40%
same,Toxicity Avg. Weight Loss,"KB tumors; 1.0 μmol/kg, 2 weeks",<1.5%
same,Toxicity Deaths (%),"KB tumors; 1.0 μmol/kg, 2 weeks",0%
same,CR (%),"KB tumors; 2.0 μmol/kg, 2 weeks",0%
same,Cures (%),"KB tumors; 2.0 μmol/kg, 2 weeks",100%
same,PR (%),"KB tumors; 2.0 μmol/kg, 2 weeks",0%
same,Toxicity Avg. Weight Loss,"KB tumors; 2.0 μmol/kg, 2 weeks",<3%
same,Toxicity Deaths (%),"KB tumors; 2.0 μmol/kg, 2 weeks",0%
same,complete response (test animals),"KB tumors; intravenously 1 μmol/kg TIW, 2 wk",4/4
same,toxicity in relation to anti-tumor effect in mice,"KB tumors; mouse, in vivo",anti-tumor responses without significant toxicity
same,improvement in specificity compared to EC0531,[1],4 fold
same,Competable up to 100 nM,[1]; KB,Yes
same,In vitro specificity (fold),[1]; difference in IC50 between competed and non-competed group,944 fold
same,specificity for the folate receptor as determined by folic acid competition,[1]; difference in IC50 between competed group and non-competed group,ca. 1000 fold
same,IC50,"[1]; read-out: 50% competition, competed group (excess folic acid)",1420 nM
same,IC50,"[1]; read-out: EC1456 Activity (IC50), KB, FR status +++, evaluated from 0.1-100 nM",2.3 nM
same,IC50,[1]; read-out: In vitro IC50,1.5 nM
same,IC50,LNCaP,~850 nM
